Molecules are shown by their SMILES.

From US5371284A, “Phenyl acetylenic acetals” (Schering Corporation, priority 1993, dated 1994) come the findings set out here.

The assay has as its system LTC4-induced contractions of guinea pig lung parenchyma. Nature of the assay: Inhibition of LTC4-induced contractions of guinea pig lung parenchyma strips. On the set-up: species or system guinea pig (male Hartley). To be noted: test compound at 10)M (so in the source); 1×10^-8 M LTC4, compound added 5 min before challenge; footnote c = statistically significant (p = 0.05), Student's t test. The method, then:
The anti-allergy method of this invention is shown by tests which measure a compound's inhibition of contractile responses of strips of lung parenchyma. Male Hartley guinea pigs (600-800 g body weight) were killed by a blow to the head and then exsanguinated. The lungs were inflated with 5 ml. of air through the trachea, the chest cavity opened, and the lungs perfused in situ through the pulmonary artery with Tyrode's solution. The lower lobe of each lung was excised and dissected into four strips (3×10 mm), each of which was suspended in a constant temperature (37° C.) organ bath containing 10 mL of Tyrode's solution and aerated with 95% O2 -5% CO2. Each lung strip was attached to a Harvard isometric muscle transducer and tension was recorded with a Harvard recording module. The initial tension was adjusted to 2 g and the tissues allowed to equilibrate until a steady baseline was reached. […] The peak contractile response to LTC4 was recorded and expressed as a percent of the maximum response (obtained with 1×10^-4 M histamine) of that lung strip. The effect of each test compound is expressed as percent inhibition of the contractile response calculated as follows: [formula]

With `CCCc1c(OCC(O)COc2ccc3c(=O)cc(C(=O)O)oc3c2CCC)ccc(C(C)=O)c1O` (stereo not shown) [FPL 55712], the “% Inhibition of LTC4-induced contractions of guinea pig lung parenchyma” value was determined as 99%.
